Measurements: patent publication US6410539B1, “Imidazole derivatives and their use as farnesyl protein transferase inhibitors” (Astrazenca UK Limited, priority 1997, dated 2002)

Key:
[1] = biological target: T1, Farnesyl protein transferase (FPT) (Homo sapiens, UniProt P49354+P49356); assay: In-vitro farnesyl protein transferase assay (farnesylation of Ki-ras with radiolabelled farnesyl pyrophosphate); type: biochemical; conditions: "in the above test"; FPT partially purified from human placenta, substrate Kras (CVIM C-terminal sequence)
T1 construct: partially purified from human placenta by ammonium sulphate fractionation; from tissue; host or cells: human placenta
Method: The following stock solutions were used and the assays were conducted in 96 well plates: TRIS Buffer (500 mM TRIS, 50 mM MgCl2.6H2O, pH=8.0); Farnesyl pyrophosphate (6.4 mg/ml); Aprotinin (1.9 mg/ml); Ki-ras (0.5 mg/ml, stored at −80° C.); Acid ethanol (850 ml absolute ethanol+150 ml concentrated HCl).
Farnesyl protein transferase (FPT) was partially purified from human placenta by ammonium sulphate fractionation followed by a single Q-Sepharose™ (Pharmacia, Inc) anion exchange chromatography essentially as described by Ray and Lopez-Belmonte (Ray K P and Lopez-Belmonte J (1992) Biochemical Society Transactions 20 494-497). The substrate for FPT was Kras (CVIM C-terminal sequence). The cDNA for oncogenic val12 variant of human c-Ki-ras-2 4B was obtained from the plasmid pSW11-1 (ATCC). This was then subcloned into the polylinker of a suitable expression vector e.g. pIC147. The Kras was obtained after expression in the E. coli strain, BL21. […]
Assays were performed in 96 well plates as follows: 10 μl of test compound solution was added to each well. […] Precipitated protein was then collected onto glass fibre filter mats (B) using a Tomtec™ cell harvester and tritiated label was measured in a Wallac™1204 Betaplate scintillation counter. […]

Structure (SMILES)	melting point [°C]	IC50 [1] [nM]
COC(=O)[C@H](CCSC)NC(=O)c1ccc(NC(Cn2ccnc2)c2ccc(F)cc2)cc1-c1ccc(F)cc1 (stereo partly drawn) [Example 2, Methyl (2S)-2-{2-(4-fluorophenyl)-4-[1-(4-fluorophenyl)-2-(imidazol-1-yl)ethylamino]benzoylamino}-4methylsulfanylbutyrate]	94 to 98	
CSCC[C@H](NC(=O)c1cc(NC(Cn2ccnc2)c2ccc(F)cc2)ccc1Cc1ccc(F)cc1)C(=O)O (stereo partly drawn) [Example 10, (2S)-2-{5-[1(4-Fluorophenyl)-2-(imidazol-1-yl)ethylamino]-2-(4-fluorobenzyl)benzoylamino}-4-methylsulfanylbutyric acid]	130 to 135	
CSCC[C@H](NC(=O)c1cc(NC(Cn2ccnc2)c2ccc(F)cc2)ccc1CCc1ccc(F)cc1)C(=O)O (stereo partly drawn) [Example 8, (2S)-2-{5-[1-(4-Fluorophenyl)-2-(imidazol-1-yl)ethylamino]-2-(4-fluorophenethyl)benzoylamino}-4-methylsulfanylbutyric acid]	115 to 120	
CSCCC(NC(=O)c1ccc(NC(Cn2ccnc2)c2ccc(F)cc2)cc1-c1ccccc1)C(=O)O [Example 6, (2S)-2-{2-Phenyl-4-[1-(4-fluorophenyl-2-imidazol-1-yl)ethylamino]benzoylamino}-4-methylsulfanylbutyric acid]		~2
